Assay results published in US20040102454A1, “Phenylahistin and the phenylahistin analogs, a new class of anti-tumor compounds” (priority 1998, published 2004).
Converted amounts (≈) assume the structure as drawn. “And” between values parts separate entries of the source, which are not always exact repeats. Identical values can stand only once. Like-named read-outs stand apart in the source and are kept apart here. Blank lines part the entries; values can stand above or below the compound they belong to.

Key:
[1] = test system: T. mentagrophytes isolate #1; test: Antifungal susceptibility testing, broth dilution (NCCLS M38-A); format: cell-based, Trichophyton mentagrophytes; conditions: for MIC: 80% reduction in turbidity
Description: (§1) Antifungal susceptibility testing was accomplished according to the methods outlined in the National Committee for Clinical Laboratory Standards, M38-A “Reference Method for Broth Dilution Antifungal Susceptibility Testing of Conidium-Forming Filamentous Fungi; Approved Standard.” This includes testing in RPMI-1640 with glutamine and without bicarbonate, an inoculum size of 0.4-5×10^4, and incubation at 30 or 35° C. for 48 hours. […] Drug concentrations were 0.03-16 μg/ml for the investigational compounds, 0.015-8 μg/ml for itraconazole and griseofulvin.
(§2) The minimum lethal concentration (MLC) was determined by plating […] from the MIC concentration and each concentration above the MIC. […] When a MIC was obtained, a minimum fungicidal concentration (MFC) was determined to assess the fungistatic/fungicidal nature of the compound. […] The compound is scored as fungistatic if the cells are able to resume growth and fungicidal if no regrowth is possible because the compound had killed the organisms.

[2] = test system: T. mentagrophytes isolate #2; test: as above; format: cell-based, Trichophyton mentagrophytes; conditions: 80% reduction in turbidity
Description: as §1, §2

E. floccosum isolate #1 = test: as above; format: cell-based, Epidermophyton floccosum; conditions: 80% reduction in turbidity
Description: as §1, §2

E. floccosum isolate #2 = test: as above; format: cell-based, Epidermophyton floccosum
Description: as §1, §2

T. rubrum isolate #2 = test: as above; format: cell-based, Trichophyton rubrum; conditions: for MIC: 80% reduction in turbidity
Description: as §1, §2

T. rubrum isolate #1 = test: as above; format: cell-based, Trichophyton rubrum; conditions: T. rubrum isolate #1; for MIC: 80% reduction in turbidity
Description: as §1, §2

A. fumigatus isolate #2 = test: as above; format: cell-based; conditions: Aspergillus fumigatus, 80% reduction in turbidity
Description: as §1, §2

[3] = test system: DU-145 human prostate tumor; test: DU-145 Human Prostate Tumor Xenograft Model; format: in vivo, nude mice; conditions: Taxotere alone
Description: Male mice were implanted s.c. by trocar with fragments of DU-145 tumors harvested from s.c. growing tumors in nude male mice hosts. When the tumors reached ˜5 mm×5 mm ( at about 13-17 days) the animals were matched into treatment and control groups. The remainder of the study proceeded as for the HT-29 model, using taxotere as the standard chemotherapy agent.
In this model unless otherwise noted for the individual study, test compound was administered via the intraperitoneal route on Days 1, 3, 5, 8 and 11 (q3d×5); taxotere was administered intravenously on Days 1, 3 and 5 (q2d×3).
The study involved an assessment of t-butyl-phenyalhistin alone and in combination with taxotere.

A. fumigatus isolate #1 = test: Antifungal susceptibility testing, broth dilution (NCCLS M38-A); format: cell-based; conditions: Aspergillus fumigatus, 80% reduction in turbidity
Description: as §1, §2

bovine brain tubulin = test: [^3H]CLC binding to tubulin and competition assay
Description: [^3H]CLC binding to tubulin was evaluated by the ultrafiltration method of Takahashi, M., et al., Biochim. Biophys. […] The concentration of unbound [^3H]CLC in the filtrates was determined using a EcoLite™(+) liquid scintillator from ICN Pharmaceuticals Inc. (Costa Mesa, Calif.). Specific bound [^3H]CLC concentrations were determined by adding an excess (×100) of unlabeled CLC to the reaction mixture.
For the competition assay, bovine brain tubulin (0.2 mg/ml) was incubated in the microtubule assembly buffer with 0.5 μM [^3H]CLC and various concentrations of competitors for 20 min at 37° C. [^3H]CLC binding was measured as described above.

HuVEC monolayer = HuVEC monolayer permeability to FITC-Dextran; format: cell-based, human; conditions: FITC-Dextran
From the text: This vascular collapse is preceded by a rapid induction of vascular cell permeability initially to electrolytes and soon after to large molecules. The enhanced permeability of HuVEC cells to a fluorescent-labeled dextran is used as a proxy assay for vascular collapse.

[4] = test system: tubulin in Human umbilical vein endothelial cells (HuVEC); test: Action on microtubule function, staining for α-tubulin; format: cell-based; conditions: 2 μM, thirty minutes exposure
[5] = test system: microtubules in A549 cells; test: Immunofluorescence staining of microtubules; format: cell-based, human; conditions: 6 hours incubation
Description: Immunocytochemical staining was performed using the method described by Yahara, I. et al., Cell (1978) 15, 251-259. A549 cells were cultured on glass coverslips and incubated with the test drug for 6 hours. The cells were then fixed with 3.7% formaldehyde for 30 min, permeabilized with 0.2% Triton X-100 for 5 min, and incubated with a mouse monoclonal antibody against α-tubulin (Calbiochem®, Oncogene Research Products, Cambridge, Mass.), followed by incubation with fluorescein isothiocyanate-conjugated goat anti-mouse IgG from Cosmo Bio Co., (Tokyo, Japan), and the cells were examined under an immunofluorescent microscope.

[6] = test system: MES-SA (Taxol Sensitive) human uterine sarcoma tumor cell line; test: Drug resistant cell line pair, cytotoxicity; format: cell-based; conditions: CsA Pretreat versus No CsA
From the text: MES-SA (Taxol Sensitive) and MES-SA DX (Taxol Resistant). This cell line expresses elevated mdr-1 mRNA and P-glycoprotein (an extrusion pump mechanism). Pretreatment with cyclosporin-A (CsA) blocks P-glycoprotein and reinstates activity in the resistant cell line for those compounds for which the resistance is due to elevated P-glycoprotein.

[7] = Trichophyton mentagrophytes, read-out: MIC
[8] = Trichophyton rubrum, read-out: MIC

MIC [1, 7]: 1 µg/mL (≈ 2.83 µM)
MIC [2, 7]: 2 µg/mL (≈ 5.67 µM)
MIC (E. floccosum isolate #1; Epidermophyton floccosum, read-out: MIC): 2 µg/mL (≈ 5.67 µM)
MIC (T. rubrum isolate #2; [8]): < 0.015 µg/mL
MIC (T. rubrum isolate #1; [8]): 0.5 µg/mL (≈ 1.42 µM)
MIC (A. fumigatus isolate #2): 0.5 µg/mL (≈ 1.42 µM)
SMILES: COC1=CC(=O)C[C@@H](C)[C@]12Oc1c(Cl)c(OC)cc(OC)c1C2=O [griseofulvin, reference compound]
MFC (E. floccosum isolate #2; Epidermophyton floccosum, read-out: MICs and MFCs): 4 µg/mL (≈ 11.3 µM)

MIC (A. fumigatus isolate #1): 1 µg/mL (≈ 1.42 µM)
SMILES: CCC(C)n1ncn(-c2ccc(N3CCN(c4ccc(OCC5COC(Cn6cncn6)(c6ccc(Cl)cc6Cl)O5)cc4)CC3)cc2)c1=O (centres unmarked) [itraconazole, reference compound]

effect on CLC binding to tubulin (bovine brain tubulin): slightly enhanced
SMILES: CC[C@]1(O)C[C@@H]2CN(CCc3c([nH]c4ccccc34)[C@@](C(=O)OC)(c3cc4c(cc3OC)N(C)[C@H]3[C@@](O)(C(=O)OC)[C@H](OC(C)=O)[C@]5(CC)C=CCN6CC[C@]43[C@@H]65)C2)C1 [VLB, vinblastine, reference compound]

More lines, now with the values behind:

SMILES: CC(=O)O[C@@]12CO[C@@H]1C[C@H](O)[C@@]1(C)C(=O)[C@H](O)C3=C(C)[C@@H](OC(=O)[C@H](O)[C@@H](NC(=O)OC(C)(C)C)c4ccccc4)C[C@@](O)([C@@H](OC(=O)c4ccccc4)[C@H]21)C3(C)C [Taxotere, reference compound]
NCI established criterion for a positive effect (TGA 58%) [3]: did not reach the NCI established criterion

SMILES: CC(C)(C)c1[nH]cnc1/C=C1\NC(=O)[C@H](Cc2ccccc2)NC1=O [NPI2460]
MFC [1]: >16 µg/mL
MIC [1]: 4 µg/mL (≈ 11.8 µM)
MIC [2]: >16 µg/mL
MIC (E. floccosum isolate #1): >16 µg/mL
MICs and MFCs (E. floccosum isolate #2): >16 µg/mL
MFC (T. rubrum isolate #2): <0.03 µg/mL
MIC (T. rubrum isolate #2): <0.03 µg/mL
MFC (T. rubrum isolate #1): 0.125 µg/mL (≈ 0.369 µM)
MIC (T. rubrum isolate #1): <0.03 µg/mL

SMILES: CC(=O)O[C@H]1C(=O)[C@@]2(C)[C@H]([C@H](OC(=O)c3ccccc3)[C@]3(O)C[C@H](OC(=O)[C@H](O)[C@@H](NC(=O)c4ccccc4)c4ccccc4)C(C)=C1C3(C)C)[C@]1(OC(C)=O)CO[C@@H]1C[C@@H]2O [Taxol, paclitaxel, reference compound]
HuVEC monolayer permeability (HuVEC monolayer): inactive
microtubule depolymerization [4]: did not induce microtubule depolymerization
microtubule structure (anti α-tubulin staining) [5]: thick microtubule bundles and multiple bright fluorescent aster formation
Ratio No CsA [6]: 0.6 and 0.4
